Test [1] can be described thus: Inhibition of Staphylococcus aureus SrtA.
Test [2] can be described thus: Inhibition of Bacillus anthracis SrtA.
The nature of test [3]: Inhibition of Staphylococcus aureus SrtA after 2 hrs.
Test [4] can be described thus: Inhibition of Staphylococcus aureus SrtA by FRET assay.
Test [5] can be described thus: Inhibition of Staphylococcus aureus ATCC 6538p recombinant SrtA after 1 hr by spectrometery using Dabcyl-QALPETGEE-Edans as substrate.
Test [6] is described as follows: Competitive inhibition of Staphylococcus aureus ATCC 6538p recombinant SrtA by spectrometery using Dabcyl-QALPETGEE-Edans as substrate.
The nature of test [7]: Inhibition of Staphylococcus aureus ATCC 6538p SrtA by spectrometery.

Values after ≈ are worked out from the molar mass of the structure shown.

By IC50 is commonly meant the concentration that gives 50% inhibition. Regarding `Clc1ccccc1-c1nn2c(-c3ccncc3)nnc2s1`, the IC50 in test [1] came to 11.78 µg/mL (≈ 37.5 µM).

Consider `CN(C)CCC(=O)c1ccc(Cl)c(Cl)c1`, for which the IC50 stood at 5.6 µM in test [2] and 15 µM in test [3].

Take `O=C(O)COc1ccccc1C1Nc2cccc3cccc(c23)N1`: the IC50 in test [4] worked out at 15.12 µg/mL (≈ 47.2 µM).

Take `CC[C@H](CC[C@@H](C)[C@H]1CC[C@H]2[C@@H]3CC[C@@H]4C[C@@H](O[C@@H]5O[C@H](CO)[C@@H](O)[C@H](O)[C@H]5O)CC[C@]4(C)[C@H]3CC[C@]12C)C(C)C`: in test [5], the IC50 worked out at 18.3 µg/mL.

As for `CN(C)CCC(=O)c1cccs1`, the IC50 in test [2] is 4.8 µM; in test [3] it was 47 µM.

`COC(=O)/C(=C/c1ccc(OC)cc1)c1ccc(OC)cc1`: the IC50 in test [5] (read-out: IC50) came to 231 µM.

Usually Ki stands for the equilibrium dissociation constant of an inhibitor or competing ligand from its target. For `COc1ccc(/C(C#N)=C/c2cc(OC)ccc2OC)cc1`, the Ki in test [6] came out at 6.81 µM. Besides, the IC50 in test [5] (read-out: IC50) turned out to be 9.2 µM.

Turning to `COc1ccc(/C=C(\C#N)c2ccc(OC)cc2)cc1`, the IC50 in test [5] (read-out: IC50) stood at 28 µM.

On to `COc1ccc2cc3[n+](cc2c1OC)CCc1cc2c(cc1-3)OCO2.[Cl-]` [BERBERINE CHLORIDE], for which the IC50 in test [5] was found to be 8.7 µg/mL.

Take `COc1cc(/C=C/C(=O)CC(=O)/C=C/c2ccc(O)c(OC)c2)ccc1O` [CURCUMIN]: the IC50 in test [7] came to 13.8 µg/mL (≈ 37.5 µM).

In test [1], `C=C(C)[C@H](CCC(C)(C)O)Cc1c(O)cc(OC)c2c1O[C@H](c1ccc(O)cc1O)CC2=O` [KURARINOL] registered an IC50 of 48.8 µg/mL (≈ 107 µM).

The values are drawn from ChEMBL document CHEMBL3734681, “Sortase A Inhibitors: Recent Advances and Future Perspectives” (J Med Chem, 2015).
